# Laboratory results as given in patent publication US20220184222A1, “BICYCLE TOXIN CONJUGATES AND USES THEREOF” (BicycleTx Limited, priority 2019, published 2022).
# Starred links: 1 amine or outer side, 2 acyl side, 3 side chain; linkers in the order of their positions; H or OH if unused. Non-standard residues stand in square brackets, D forms with d. Residues, ends and D or L forms follow the SMILES beside them. *: point of attachment. Dolaproine = CO[C@@H]([C@@H]1CCCN1)[C@@H](C)C(=O)O; Dil = CC[C@H](C)[C@H](NC)[C@@H](CC(=O)O)OC; PABC = O=C(OCc1ccc(N[*:1])cc1)[*:2]; X1 = O=C(CCCC(=O)*)ON1C(=O)CCC1=O; X2 = C[C@@H](N*)[C@@H](O)c1ccccc1; Cit = NC(=O)NCCC[C@H](N)C(=O)O; NMeV = CN[C@H](C(=O)O)C(C)C
# How the values were obtained:
# PC-3 xenograft = assay: In vivo efficacy in PC-3 xenograft, male Balb/c nude mice (Example 3); parameters: species or system Mus Musculus
# Protocol: The objective of the research is to evaluate the in vivo anti-tumor efficacy of test articles in treatment of PC-3 xenograft in Balb/c nude mice.
# The tumor cells were maintained in F-12K medium supplemented with 10% heat inactivated fetal bovine serum at 37° C. in an atmosphere of 5% CO2 in air. The tumor cells were routinely subcultured twice weekly. The cells growing in an exponential growth phase were harvested and counted for tumor inoculation.
# Each mouse was inoculated subcutaneously at the right flank with PC-3 tumor cells (10×10^6) in 0.2 ml of PBS for tumor development. 52 animals were randomized when the average tumor volume reached 454 mm^3. The test article administration and the animal numbers in each group were shown in the experimental design table.
# The major endpoint was to see if the tumor growth could be delayed or mice could be cured. Tumor volume was measured three times weekly in two dimensions using a caliper, and the volume was expressed in mm3 using the formula: V=0.5 a×b^2 where a and b are the long and short diameters of the tumor, respectively. The tumor size was then used for calculations of T/C value. The T/C value (in percent) is an indication of antitumor effectiveness; T and C are the mean volumes of the treated and control groups, respectively, on a given day.
# TGI was calculated for each group using the formula: TGI (%)=[1−(Ti−T0)/(Vi−V0)]×100; Ti is the average tumor volume of a treatment group on a given day, T0 is the average tumor volume of the treatment group on the day of treatment start, Vi is the average tumor volume of the vehicle control group on the same day with Ti, and V0 is the average tumor volume of the vehicle group on the day of treatment start.
# Tumor growth inhibition rate for test articles in the PC-3 xenograft model was calculated based on tumor volume measurements at day 20 after the start of the treatment.
# CTG-1535 = assay: Champions TumorGraft NSCLC PDX efficacy, model CTG-1535; type: in vivo, Mus musculus
# Protocol: Mice were implanted subcutaneously into the left flank with tumor fragments from one of the various models. […] Effects on tumor growth were evaluated by measuring percent tumor growth inhibition (% TGI), and the number of complete responders (CR), partial responders (PR), and tumor-free survivors (TFS). Tolerability was assessed by body weight loss, lethality, and clinical signs of adverse treatment-related side effects. Tumor volumes and body weights were measured twice a week.
# Dosing solutions of BT5528 […] were pre-formulated. These dosing solutions were stored at −80° C. in the dark. On each day of dosing, a frozen aliquot of each test agent was thawed, stored at 2-8° C. and used for dosing.
# The animals used in this study are described below: • Species: Mus musculus • Strain: Athymic Nude-Foxn1^nu (immune-compromised) • Source: Envigo (Indianapolis, Ind., USA) • Number of animals per group: 2 • Age and sex: At least 6-8 weeks of age at start of dosing, female • Weight: At least 18 grams at start of dosing • Acclimation period: 3 days
# Stock mice were implanted with tumor cells from Champions TumorGraft® models CTG-0160, CTG-0170, CTG-0178, CTG-0192, CTG-0363, CTG-0808, CTG-0838, CTG-0848, CTG-1212, CTG-1502, CTG-1535, CTG-2011, CTG-2393, CTG-2539 or CTG-2540. After the tumors reached 1000-1500 mm^3, they were harvested and the tumor fragments (approximately 5×5×5 mm^3) were implanted SC in the left flank of the female study mice. Each animal was implanted with a specific passage lot and documented. Tumor growth was monitored twice a week using digital calipers and the tumor volume (TV) was calculated using the formula (0.52×[length×width^2]). When the TV reached an average volume of 150-300 mm^3, animals were matched by tumor size and assigned into Vehicle Control and treatment groups (n=2/group) and dosing was initiated on Day 0. After the initiation of dosing on Day 0, animals were weighed twice per week using a digital scale and TV was measured twice per week and also on the final day of study. The study was completed when the mean tumor volume of Vehicle Control reached 1500 mm^3 or up to Day 60, whichever occurred first.
# Beginning on Day 0, animals were observed daily and weighed twice weekly using a digital scale; data including individual and mean gram weights, mean percent weight change versus Day 0 (% vD0) were recorded for each group and % vD0 plotted at study completion. […] Treatment resulting in a mean % vD0>20% and/or >10% mortality was considered above the maximum tolerated dose. Maximum mean % vD0 (weight nadir) for each treatment group was reported at study completion.
# Inhibition of tumor growth was determined by calculating the percent TGI (100%×[1−(final MTV−initial MTV of a treated group)/(final MTV−initial MTV of the control group)]). Treatment started on Day 0.
# Additional endpoints used to evaluate efficacy were: the number of complete responders (CR), partial responders (PR), and tumor-free survivors (TFS). PRs were considered exclusive of CRs, as were TFS.
# Statistical analyses of anti-tumor efficacy were performed using one-way ANOVA followed by Dunnett's multiple comparisons test (GraphPad Prism version 8.2.0). Significant p-values=<0.05.
# Animals were dosed according to the schedule on Table 7-1. The study was terminated on Day 35.
# [1] = CTG-1535, 3 mg/kg IV Q7Dx5, Day 0-35
structure (smiles),measurement,setting,value
CC[C@H](C)[C@@H]([C@@H](CC(=O)N1CCC[C@H]1[C@H](OC)[C@@H](C)C(=O)N[C@H](C)[C@@H](O)c1ccccc1)OC)N(C)C(=O)[C@@H](NC(=O)[C@H](C(C)C)N(C)C(=O)OCc1ccc(NC(=O)[C@H](CCCNC(N)=O)NC(=O)[C@@H](NC(=O)CCCC(=O)ON2C(=O)CCC2=O)C(C)C)cc1)C(C)C [BT5528] (X1-V[Cit][PABC][NMeV]V[Dil][Dolaproine]-X2),tumor relapse after ceasing the treatment,PC-3 xenograft; 0.5 mg/kg qw or 0.5 mg/kg q2w,obvious tumor relapse after ceasing the treatment
same,tumor relapse after ceasing the treatment,PC-3 xenograft; 1.5 mg/kg q2w,tumor relapse after ceasing the treatment
same,tumor relapse after ceasing the treatment,PC-3 xenograft; 1.5 mg/kg qw,didn't show any tumor relapse until day 48
same,further treatment after relapse,PC-3 xenograft; 1.5 mg/kg qw from day 52 in mice first treated with 0.5 mg/kg qw or q2w,worked well on the tumor regression
same,further dosing after relapse,PC-3 xenograft; 1.5 mg/kg qw from day 52 in mice first treated with 1.5 mg/kg q2w,didn't work on complete tumor regression
same,T/C,"PC-3 xenograft; 0.167 mpk i.v. qw, day 20",50.2%
same,TGI,"PC-3 xenograft; 0.167 mpk i.v. qw, day 20",61.4%
same,Tumor volume,"PC-3 xenograft; 0.167 mpk i.v. qw, day 20",1188 mm^3
same,T/C,"PC-3 xenograft; 0.5 mpk i.v. q2w, day 20",22.4%
same,TGI,"PC-3 xenograft; 0.5 mpk i.v. q2w, day 20",96.0%
same,Tumor volume,"PC-3 xenograft; 0.5 mpk i.v. q2w, day 20",530 mm^3
same,Tumor volume,"PC-3 xenograft; 0.5 mpk i.v. qw, day 0",451 mm^3
same,Tumor volume,"PC-3 xenograft; 0.5 mpk i.v. qw, day 2",622 mm^3
same,Tumor volume,"PC-3 xenograft; 0.5 mpk i.v. qw, day 4",519 mm^3
same,Tumor volume,"PC-3 xenograft; 0.5 mpk i.v. qw, day 6",460 mm^3
same,Tumor volume,"PC-3 xenograft; 0.5 mpk i.v. qw, day 8",398 mm^3
same,Tumor volume,"PC-3 xenograft; 0.5 mpk i.v. qw, day 10",329 mm^3
same,Tumor volume,"PC-3 xenograft; 0.5 mpk i.v. qw, day 13",260 mm^3
same,Tumor volume,"PC-3 xenograft; 0.5 mpk i.v. qw, day 15",249 mm^3
same,Tumor volume,"PC-3 xenograft; 0.5 mpk i.v. qw, day 17",231 mm^3
same,T/C,"PC-3 xenograft; 0.5 mpk i.v. qw, day 20",9.9%
same,TGI,"PC-3 xenograft; 0.5 mpk i.v. qw, day 20",111.4%
same,Tumor volume,"PC-3 xenograft; 0.5 mpk i.v. qw, day 20",234 mm^3
same,T/C,"PC-3 xenograft; 1.5 mpk i.v. q2w, day 20",5.4%
same,TGI,"PC-3 xenograft; 1.5 mpk i.v. q2w, day 20",117.0%
same,Tumor volume,"PC-3 xenograft; 1.5 mpk i.v. q2w, day 20",128 mm^3
same,Tumor volume,"PC-3 xenograft; 1.5 mpk i.v. qw, day 0",458 mm^3
same,Tumor volume,"PC-3 xenograft; 1.5 mpk i.v. qw, day 2",587 mm^3
same,Tumor volume,"PC-3 xenograft; 1.5 mpk i.v. qw, day 4",494 mm^3
same,Tumor volume,"PC-3 xenograft; 1.5 mpk i.v. qw, day 6",363 mm^3
same,Tumor volume,"PC-3 xenograft; 1.5 mpk i.v. qw, day 8",283 mm^3
same,Tumor volume,"PC-3 xenograft; 1.5 mpk i.v. qw, day 10",237 mm^3
same,Tumor volume,"PC-3 xenograft; 1.5 mpk i.v. qw, day 17",155 mm^3
same,T/C,"PC-3 xenograft; 1.5 mpk i.v. qw, day 20",5.5%
same,TGI,"PC-3 xenograft; 1.5 mpk i.v. qw, day 20",117.2%
same,Tumor volume,"PC-3 xenograft; 1.5 mpk i.v. qw, day 20",131 mm^3
same,treatment of relapsed Docetaxel-pretreated mice,PC-3 xenograft; BT5528 1.5 mg/kg qw from day 42,worked well on tumor regression
same,measurable tumor regression by day after dosing,PC-3 xenograft; PC-3 xenograft,≤ 4 days
same,efficacy with intermittent dosing,PC-3 xenograft; dosing every 2 weeks,efficacious with intermittent dosing
same,MTV (mean tumor volume),"CTG-1535; 3 mg/kg IV Q7Dx5, Day 35",307±91 mm^3
same,TGI,"CTG-1535; 3 mg/kg IV Q7Dx5, Day 35",85%
same,# CR (complete responders),CTG-1535; [1],0/0/0
same,# PR (partial responders),CTG-1535; [1],0/0/0
same,# TFS (tumor-free survivors),CTG-1535; [1],0/0/0
same,% TGI,"CTG-1535; CTG-1535, 3 mg/kg IV Q7Dx5, Day 35",85%
same,Day 35 Tumor Volume Mean TV ± SEM,"CTG-1535; CTG-1535, BT5528 3 mg/kg IV Q7Dx5, Day 35, n=2",307 ± 91 mm^3
